Assay: Franz cell penetration study through pig skin stratum corneum/epidermis membrane
Format: in vitro ADME
Details: for Cumulative penetration of spironolactone through stratum corneum/epidermis: formulation of Table 6a, receptor phosphate buffer pH 7.4
Method: The functionality of the formulation was tested by evaporating the anti-solvent ethyl acetate. […] This formulation was used for penetration testing. When applied to the skin, spironolactone is intended to penetrate through the statum corneum into epidermis/dermis and not through the skin.
In this set-up, dermis was removed from full thickness pig skin and the remaining membrane consisting of stratum corneum and epidermis was mounted in the cell. The receptor fluid was phosphate buffer at pH 7.4 and 32° C. An amount of the experimental formulation corresponding to 50 mg of product and 1.5 mg of active substance after evaporation was applied. […] The experiment was performed at 34° C. and analysis of spironolactone was performed by HPLC.

[1] = after 6 hours, 1.5 mg of active substance applied

amount of spironolactone passed the skin membrane [1]: 0.5 mg | spironolactone passed the skin membrane, % of the dose [1]: 33% | Cumulative penetration of spironolactone through stratum corneum/epidermis (time 0 h): 0 μg/cm^2 | Cumulative penetration of spironolactone through stratum corneum/epidermis (time 2 h): 281 μg/cm^2 | Cumulative penetration of spironolactone through stratum corneum/epidermis (time 4 h): 381 μg/cm^2 | Cumulative penetration of spironolactone through stratum corneum/epidermis (time 6 h): 440 μg/cm^2 | Cumulative penetration of spironolactone through stratum corneum/epidermis (time 24 h): 466 μg/cm^2
Compound: CC(=O)S[C@@H]1CC2=CC(=O)CC[C@]2(C)[C@H]2CC[C@@]3(C)[C@@H](CC[C@@]34CCC(=O)O4)[C@H]12 [Spironolactone]

Reference: patent US20130324502A1, “NOVEL FORMULATIONS FOR DERMAL, TRANSDERMAL AND MUCOSAL USE 1” (MOBERG PHARMA AB, priority 2011, published 2013)
